US20230085307A1, “PYRIDAZINONE COMPOUND AND HERBICIDE” (NISSAN CHEMICAL CORPORATION, priority 2019, published 2023)

Key:
late watergrass = test: Test Example 1: herbicidal activity, application before weed generation under submerged conditions (Table 16, symbol A); assay type: in vivo, late watergrass (Echinochloa oryzicola); conditions: amount of applied herbicide 320 g/ha
Method in brief: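 Emulsion formulation, water-diluted to set dose, was put onto the flooded surface (4 cm depth, alluvial soil) the same day weeds were sown and 2.5-leaf rice transplanted. After 3 weeks at 25-30 °C under glass, each species was rated 0 (≤5% kill) to 5 (≥90% kill).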

oval-leafed pondweed = test: Test Example 2: herbicidal activity, application during weed generation under submerged conditions (Table 17, symbol C); assay type: in vivo, oval-leafed pondweed (Monochoria vaginalis)
Method in brief: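 Mixed weed seedlings in alluvial soil under a 4 cm water layer, greenhouse-grown at 25–30° C. Compound given as a diluted emulsion into the floodwater at the 1–2 leaf stage; response graded after three weeks.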

Chinese sprangletop = test: Test Example 3: herbicidal effect by foliage application, Wagner pot (Table 18, symbol D); assay type: in vivo, chinese sprangletop (Leptochloa chinensis)
Method in brief: (§1)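 Plants were sown in alluvial soil held under 0.1–0.5 cm standing water and grown 14 days in a greenhouse at 25–30 °C. An emulsifiable formulation, water-diluted to the set dose, was then sprayed onto the foliage, and effects were scored three weeks later using previously defined criteria.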

rice flat sedge = test: Test Example 3: herbicidal effect by foliage application, Wagner pot (Table 18, symbol E); assay type: in vivo, rice flat sedge (Cyperus iria)
Method in brief: as §1

green foxtail = test: Test Example 4: herbicidal effect by soil treatment (Table 19, symbol G); assay type: in vivo, green foxtail (Setaria viridis); conditions: amount of applied herbicide 320 g/ha
Method in brief: (§2)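 Seeds were sown in sterilized diluvial soil and covered with about 1.5 cm of soil. An emulsion formulation diluted with water to a predetermined herbicide amount was sprayed evenly onto the soil surface. Plants grew in a greenhouse at 25° C. to 30° C., and the effect was scored three weeks after application using criteria from an earlier test.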

wild oat = test: Test Example 4: herbicidal effect by soil treatment (Table 19, symbol I); assay type: in vivo, wild oat (Avena fatua); conditions: amount of applied herbicide 320 g/ha
Method in brief: as §2

Italian ryegrass [1] = test: Test Example 4: herbicidal effect by soil treatment (Table 19, symbol K); assay type: in vivo, Italian ryegrass (Lolium multiflorum); conditions: amount of applied herbicide 320 g/ha
Method in brief: as §2

windgrass [2] = test: Test Example 4: herbicidal effect by soil treatment (Table 19, symbol L); assay type: in vivo, windgrass (Apera spica-venti); conditions: amount of applied herbicide 320 g/ha
Method in brief: as §2

velvetleaf [3] = test: Test Example 4: herbicidal effect by soil treatment (Table 19, symbol M); assay type: in vivo, velvetleaf (Abutilon theophrasti); conditions: amount of applied herbicide 320 g/ha
Method in brief: as §2

lambsquarters = test: Test Example 4: herbicidal effect by soil treatment (Table 19, symbol O); assay type: in vivo, lambsquarters (Chenopodium album); conditions: amount of applied herbicide 320 g/ha
Method in brief: as §2

persian speedwell = test: Test Example 4: herbicidal effect by soil treatment (Table 19, symbol R); assay type: in vivo, Persian speedwell (Veronica persica); conditions: amount of applied herbicide 320 g/ha
Method in brief: as §2

barnyard grass = test: Test Example 5: herbicidal effect by foliage application, plastic box (Table 20, symbol H); assay type: in vivo, barnyard grass (Echinochloa crus-galli); conditions: foliage application, 320 g/ha
Method in brief: (§3)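 Plants sown in sterilized diluvial soil and grown 14 days in a greenhouse at 25° C to 30° C, then sprayed on the foliage with the compound's emulsion diluted in water to a predetermined herbicide amount. Injury to weeds and crops scored three weeks after application on a visual rating scale.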

Italian ryegrass [4] = test: Test Example 5: herbicidal effect by foliage application, plastic box (Table 20, symbol K); assay type: in vivo, Italian ryegrass (Lolium multiflorum); conditions: foliage application, 320 g/ha
Method in brief: as §3

windgrass [5] = test: Test Example 5: herbicidal effect by foliage application, plastic box (Table 20, symbol L); assay type: in vivo, windgrass (Apera spica-venti); conditions: foliage application, 320 g/ha
Method in brief: as §3

velvetleaf [6] = test: Test Example 5: herbicidal effect by foliage application, plastic box (Table 20, symbol M); assay type: in vivo, velvetleaf (Abutilon theophrasti); conditions: foliage application, 320 g/ha
Method in brief: as §3

chickweed = test: Test Example 5: herbicidal effect by foliage application, plastic box (Table 20, symbol P); assay type: in vivo, common chickweed (Stellaria media); conditions: foliage application, 320 g/ha
Method in brief: as §3

[7] = amount of applied herbicide 320 g/ha
[8] = evaluated 3 weeks after application

Compound	Herbicidal effect, A: late watergrass (late watergrass)	G: green foxtail, herbicidal effect grade (green foxtail)	I: wild oat, herbicidal effect grade (wild oat)	K: Italian ryegrass, herbicidal effect grade (Italian ryegrass [1])	L: windgrass, herbicidal effect grade (windgrass [2])	M: velvetleaf, herbicidal effect grade (velvetleaf [3])	O: lambsquarters, herbicidal effect grade (lambsquarters)	R: persian speedwell, herbicidal effect grade (persian speedwell)	also measured
CCCCCOc1ccc2c(-c3c(O)c(C)nn(C)c3=O)c(-c3ccccc3OC)sc2c1 [3-108]	3 (Herbicidal rate of 40% or more and less than 70%)	0 (Herbicidal rate of 5% or less (almost no effect))	0 (Herbicidal rate of 5% or less (almost no effect))	0 (Herbicidal rate of 5% or less (almost no effect))	0 (Herbicidal rate of 5% or less (almost no effect))	0 (Herbicidal rate of 5% or less (almost no effect))	4 (Herbicidal rate of 70% or more and less than 90%)	0 (Herbicidal rate of 5% or less (almost no effect))	herbicidal effect rating, C: oval-leafed pondweed (oval-leafed pondweed; AAH 320 g/ha, application during weed generation, submerged conditions): 0 (Herbicidal rate of 5% or less (almost no effect)); herbicidal effect on Chinese sprangletop (D) (Chinese sprangletop; 320 g/ha): 2 (Herbicidal rate of 20% or more and less than 40%); herbicidal effect on rice flat sedge (E) (rice flat sedge; 320 g/ha): 1 (Herbicidal rate of 5% or more and less than 20%); H: barnyard grass, herbicidal effect grade (barnyard grass; three weeks after application): 0 (Herbicidal rate of 5% or less (almost no effect)); K: Italian ryegrass, herbicidal effect grade (Italian ryegrass [4]; three weeks after application): 0 (Herbicidal rate of 5% or less (almost no effect)); L: windgrass, herbicidal effect grade (windgrass [5]; three weeks after application): 0 (Herbicidal rate of 5% or less (almost no effect)); M: velvetleaf, herbicidal effect grade (velvetleaf [6]; three weeks after application): 2 (Herbicidal rate of 20% or more and less than 40%); P: chickweed, herbicidal effect grade (chickweed; three weeks after application): 3 (Herbicidal rate of 40% or more and less than 70%)
Cc1ccc2oc(-c3ccc(OCC(C)C)cc3)c(-c3c(O)c(C)nn(C)c3=O)c2c1 [9-051]	5 (Herbicidal rate of 90% or more (almost completely withered))	5 (Herbicidal rate of 90% or more (almost completely withered))	0 (Herbicidal rate of 5% or less (almost no effect))	5 (Herbicidal rate of 90% or more (almost completely withered))	4 (Herbicidal rate of 70% or more and less than 90%)	3 (Herbicidal rate of 40% or more and less than 70%)	5 (Herbicidal rate of 90% or more (almost completely withered))	5 (Herbicidal rate of 90% or more (almost completely withered))	herbicidal effect grade, C: oval-leafed pondweed (oval-leafed pondweed; application during weed generation under submerged conditions, amount of applied herbicide 320 g/ha): 5 (Herbicidal rate of 90% or more (almost completely withered)); Herbicidal effect on D (Chinese sprangletop), foliage application (Chinese sprangletop; [7]): 3 (Herbicidal rate of 40% or more and less than 70%); Herbicidal effect on E (rice flat sedge), foliage application (rice flat sedge; [7]): 4 (Herbicidal rate of 70% or more and less than 90%); H (barnyard grass) herbicidal effect grade (barnyard grass; [8]): 4 (Herbicidal rate of 70% or more and less than 90%); K (Italian ryegrass) herbicidal effect grade (Italian ryegrass [4]; [8]): 5 (Herbicidal rate of 90% or more (almost completely withered)); L (windgrass) herbicidal effect grade (windgrass [5]; [8]): 2 (Herbicidal rate of 20% or more and less than 40%); M (velvetleaf) herbicidal effect grade (velvetleaf [6]; [8]): 5 (Herbicidal rate of 90% or more (almost completely withered)); P (chickweed) herbicidal effect grade (chickweed; [8]): 5 (Herbicidal rate of 90% or more (almost completely withered))
